Reference: patent publication US11208410B2, “Heterocycle-bound condensed heterocyclic compound or salt thereof, agricultural and horticultural insecticide comprising the compound, and method for using the insecticide” (Nihon Nohyaku Co., Ltd., priority 2016, dated 2021)

What was measured:
Laodelphax striatella = experiment: Insecticidal test on Laodelphax striatella (rice seedling dip); assay type: in vivo; details: Laodelphax striatellus, 192 h, rice seedlings dipped 30 seconds, 3rd-instar larvae, 8 days after inoculation, read-out: insecticidal effect (corrected mortality rate), activity level
From the text: Insecticidal test on Laodelphax striatella
The heterocycle-bound condensed heterocyclic compounds represented by the general formula (1) of the present invention or salts thereof were separately dispersed in water and diluted to 500 ppm. Rice plant seedlings (variety: Nihonbare) were dipped in the agrochemical dispersions for 30 seconds. After air-dried, each seedling was put into a separate glass test tube and inoculated with ten 3rd-instar larvae of Laodelphax striatella, and then the glass test tubes were capped with cotton plugs. At 8 days after the inoculation, the numbers of surviving larvae and dead larvae were counted, the corrected mortality rate was calculated according to the formula shown below, and the insecticidal effect was evaluated according to the criteria shown below. Corrected mortality rate (%)=100×(Survival rate in a non-treatment plot−Survival rate in a treatment plot)/Survival rate in a non-treatment plot [Math. 2] Criteria A: the corrected mortality rate is 100%. B: the corrected mortality rate is 90 to 99%. C: the corrected mortality rate is 80 to 89%. D: the corrected mortality rate is 50 to 79%.

Plutella xylostella = experiment: Insecticidal test on Plutella xylostella (dip of Chinese cabbage seedlings with laid eggs); assay type: in vivo; details: 144 h, seedlings with laid eggs dipped about 30 seconds, 25° C., 6 days after dip treatment, read-out: insecticidal effect (corrected mortality rate), activity level
From the text: Insecticidal Test on Plutella xylostella
Adults of Plutella xylostella were released onto Chinese cabbage seedlings and allowed to lay eggs thereon. At 2 days after the release of the adults, the Chinese cabbage seedlings with laid eggs were dipped for about 30 seconds in agrochemical dispersions diluted to 500 ppm, each of which contained a different kind of heterocycle-bound condensed heterocyclic compound represented by the general formula (1) of the present invention as an active ingredient. After air-dried, the seedlings were kept in a thermostatic chamber at 25° C. At 6 days after the dip treatment, the number of hatched larvae per plot was counted, the mortality rate was calculated according to the formula shown below, and the insecticidal effect was evaluated according to the criteria of Test Example 2. This test was conducted in triplicate using 10 adults of Plutella xylostella per plot. Corrected mortality rate (%)=100×(Number of hatched larvae in a non-treatment plot−Number of hatched larvae in a treatment plot)/Number of hatched larvae in a non-treatment plot [Math. 3]

`CCS(=O)(=O)c1cc(-c2nc(-c3ccccc3)no2)cnc1-c1nc2cc(C(F)(F)C(F)(F)F)nnc2n1C` [Compound 2-56, 5-{2-(3-Methyl-6-pentafluoroethyl-3H-imidazo[4,5-C]pyridazin-2-yl)-3-(ethylsulfonyl)pyridin-5-yl}-3-phenyl-1,2,4-oxadiazole] gave a mortality at 500 ppm (Laodelphax striatella) of 100% and a mortality at 500 ppm (Plutella xylostella) of 100%.
With `CCS(=O)(=O)c1cc(-c2noc(C(F)(F)F)n2)cnc1-c1nc2cc(C(F)(F)C(F)(F)F)nnc2n1C` [Compound 1-41, 3-{2-(3-Methyl-6-pentafluoroethyl-3H-imidazo[4,5-C]pyridazin-2-yl)-3-(ethylsulfonyl)pyridin-5-yl}-5-trifluoromethyl-1,2,4-oxadiazole] the mortality at 500 ppm (Laodelphax striatella) was 100% and the mortality at 500 ppm (Plutella xylostella) was 100%.
